The subject of experiment [1] is MOLM-14 F691L (endogenous FLT3 ITD and transfected FLT3 F691L). The experiment in a line: MOLM-14 F691L cell proliferation assay (CellTiter-Glo). The experiment is classed as cell-based. Particulars: Homo sapiens, MOLM-14, 72 h; 3 d growth, GMean. The essentials:
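Three-day proliferation at 37 °C/5% CO2 of FLT3-ITD MOLM-14 lines with D835Y or F691L mutation, seeded 1×10^4 per well. Compounds at eight points, top 1 μM final, 0.2% DMSO. ATP luminescence (CellTiter-Glo) gives IC50.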
On the technique in general: Cellular ATP, detected with luciferase, serves as a proxy for viable cell number.

A further experiment concerns the target T1, c-KIT (Homo sapiens, UniProt P10721).
T1 construct: purchased Millipore 14-559K
The experiment in a line: c-KIT recombinant enzyme kinase assay (AlphaScreen). The experiment is classed as biochemical. To be noted: 100 ATP, 8 pt. The method, then:
In order to determine the effect of compounds on FLT3 catalytic activity, kinase assays using recombinant enzymes and AlphaScreen® technology have been established. The catalytic activity of c-kit activity was also measured to determine selectivity of the compounds. When the kinases are catalytically active, they phosphorylate a biotinylated peptide substrate on tyrosine residues. Using AlphaScreen® technology, the ability of the compounds to affect the catalytic activity of the kinases can be measured quantitatively. The peptide substrate is immobilized by the AlphaScreen® Streptavidin Donor beads and, upon phosphorylation by a tyrosine kinase, can bind to AlphaScreen® Anti-Phosphotyrosine (PY20) Acceptor beads. Upon excitation of these beads with laser light at 680 nm, singlet oxygen is produced. This singlet oxygen is rapidly quenched, unless the AlphaScreen® Anti-Phosphotyrosine (PY20) Acceptor beads are in close proximity, in which case a proximity signal can be measured at 580 nm. In the presence of catalytic activity, there is a very strong proximity signal. Selective kinase inhibitors affect a decrease in this proximity signal through a decrease in tyrosine phosphorylation of the peptide substrate.
The assay was performed as summarized below.
Poly (Glu4-Tyr) Peptide, biotin conjugate [Biotin-GG(EEEEY)10EE] (SEQ ID NO: 4)
Final concentration=30 nM
Adenosine Triphosphate (ATP)
Final concentration for IC50 determination=10 μM (FLT3-D835Y or FLT3-ITD) or 100 μM (c-KIT)
AlphaScreen® Phosphotyrosine (PY20) Assay Kit
Final concentration=10 μg/mL
Dilute compounds in DMSO to 20× final concentration.
Add 1 μL of compound to each well of 384 well reaction plate (Perkin Elmer #6005359).
Mix enzyme and Poly (Glu4-Tyr) Peptide substrate at 1.33× final concentration in assay buffer.
Mix ATP at 5× final concentration in assay buffer.
Add 15 μL enzyme/substrate mixture to the reaction plate.
Add 4 μL of ATP to the reaction plate.
Mix Streptavidin Donor beads at 6× final concentration in Stop/Detection buffer.
Add 5 μL Streptavidin Donor beads to the reaction plate. Centrifuge 1 minute, shake to mix, and incubate at room temperature for 20 minutes.
Mix Anti-Phosphotyrosine (PY20) Acceptor beads at 6× final concentration in Stop/Detection buffer.
Add 5 μL Anti-Phosphotyrosine (PY20) beads to the reaction plate.
Centrifuge 1 minute, shake to mix, and incubate at room temperature for 60 minutes.
Read plate on Wallac EnVision™ 2103 Multilabel Reader.
On the technique in general: Bead proximity is the source of the signal in Alpha formats.

T1 sequence (P10721 26-976): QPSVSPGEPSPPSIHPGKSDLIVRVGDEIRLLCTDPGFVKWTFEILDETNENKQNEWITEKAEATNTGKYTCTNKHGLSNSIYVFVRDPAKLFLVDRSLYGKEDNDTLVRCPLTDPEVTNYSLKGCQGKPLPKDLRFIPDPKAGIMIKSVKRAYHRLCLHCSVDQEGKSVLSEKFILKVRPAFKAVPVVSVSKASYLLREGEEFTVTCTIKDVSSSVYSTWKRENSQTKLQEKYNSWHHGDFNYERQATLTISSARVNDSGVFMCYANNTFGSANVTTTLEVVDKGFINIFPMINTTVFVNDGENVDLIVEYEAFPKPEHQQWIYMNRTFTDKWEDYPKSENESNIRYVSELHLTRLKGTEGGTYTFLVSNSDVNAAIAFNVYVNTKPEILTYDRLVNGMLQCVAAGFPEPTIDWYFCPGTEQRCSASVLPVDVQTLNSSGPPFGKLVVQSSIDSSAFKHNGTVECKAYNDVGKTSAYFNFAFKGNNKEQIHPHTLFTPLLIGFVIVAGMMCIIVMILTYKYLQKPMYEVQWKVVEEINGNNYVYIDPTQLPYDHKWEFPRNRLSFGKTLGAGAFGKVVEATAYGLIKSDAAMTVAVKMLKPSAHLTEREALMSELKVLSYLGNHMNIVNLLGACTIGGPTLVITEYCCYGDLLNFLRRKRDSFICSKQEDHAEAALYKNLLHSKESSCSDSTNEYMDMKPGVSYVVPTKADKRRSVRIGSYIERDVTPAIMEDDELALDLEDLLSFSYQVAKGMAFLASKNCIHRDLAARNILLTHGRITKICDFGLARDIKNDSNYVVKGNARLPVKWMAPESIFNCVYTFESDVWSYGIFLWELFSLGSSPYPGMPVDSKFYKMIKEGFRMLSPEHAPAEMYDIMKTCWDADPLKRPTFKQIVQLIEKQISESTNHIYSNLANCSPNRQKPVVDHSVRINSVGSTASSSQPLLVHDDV

As to `Cn1cc(Nc2ncc(-c3ccc(CC(=O)Nc4cccc(C(C)(C)C#N)c4)cc3)cn2)cn1` [Compound P-0158, N-[3-(1-cyano-1-methyl-ethyl)phenyl]-2-[4-[2-[(1-methylpyrazol-4-yl)amino]pyrimidin-5-yl]phenyl]acetamide], the half-maximal inhibitory concentration (IC50) (in experiment [1]; on c-KIT) was 0.0001 to 10 µM in each case.
With `CCn1cc(Nc2ncc(-c3ccc(CC(=O)Nc4cncc(C(F)(F)F)c4)cc3)cn2)cn1` [Compound P-0166, 2-[4-[2-[(1-ethylpyrazol-4-yl)amino]pyrimidin-5-yl]phenyl]-N-[5-(trifluoromethyl)-3-pyridyl]acetamide], the half-maximal inhibitory concentration (IC50) (in experiment [1]; at c-KIT) was 0.0001 to 10 µM in each case.
In the case of `Cn1cc(Nc2ncc(-c3ccc(CC(=O)Nc4ccnc(C5CC5)c4)cc3)cn2)cn1` [Compound P-0097, N-(2-cyclopropyl-4-pyridyl)-2-[4-[2-[(1-methylpyrazol-4-yl)amino]pyrimidin-5-yl]phenyl]acetamide], the IC50 (in experiment [1]; at c-KIT) was 0.0001 to 10 µM each time.
For `Cn1cc(Nc2ncc(-c3ccc(CC(=O)Nc4cncc(C(C)(F)F)c4)cc3)cn2)cn1` [Compound P-0144, N-[5-(1,1-difluoroethyl)-3-pyridyl]-2-[4-[2-[(1-methylpyrazol-4-yl)amino]pyrimidin-5-yl]phenyl]acetamide], the IC50 (in experiment [1]; on c-KIT) was 0.0001 to 10 µM in each case.
On to `Cn1cc(Nc2ncc(-c3ccc(CC(=O)Nc4ccc(C(F)(F)F)c(F)c4)cc3)cn2)cn1` [Compound P-0142, N-[3-fluoro-4-(trifluoromethyl)phenyl]-2-[4-[2-[(1-methylpyrazol-4-yl)amino]pyrimidin-5-yl]phenyl]acetamide], for which the IC50 (in experiment [1]; at c-KIT) was 0.0001 to 10 µM in each case.
For the molecule `CCc1cncc(NC(=O)Cc2ccc(-c3cnc(Nc4cnn(C)c4)nc3)cc2F)c1` [Compound P-0111, N-(5-ethyl-3-pyridyl)-2-[2-fluoro-4-[2-[(1-methylpyrazol-4-yl)amino]pyrimidin-5-yl]phenyl]acetamide], the IC50 (in experiment [1]; on c-KIT) was 0.0001 to 10 µM in each case.
As for `CCn1cc(Nc2ncc(-c3ccc(CC(=O)Nc4cnc(Cl)c(C(F)(F)F)c4)cc3)cn2)cn1` [Compound P-0165, N-[6-chloro-5-(trifluoromethyl)-3-pyridyl]-2-[4-[2-[(1-ethylpyrazol-4-yl)amino]pyrimidin-5-yl]phenyl]acetamide], the IC50 (in experiment [1]; on c-KIT) was 0.0001 to 10 µM throughout.
Regarding `Cn1cc(Nc2ncc(-c3ccc(CC(=O)Nc4cnc(F)c(C(C)(F)F)c4)c(F)c3)cn2)cn1` [Compound P-0105, N-[5-(1,1-difluoroethyl)-6-fluoro-3-pyridyl]-2-[2-fluoro-4-[2-[(1-methylpyrazol-4-yl)amino]pyrimidin-5-yl]phenyl]acetamide], the IC50 (in experiment [1]; on c-KIT) was 0.0001 to 10 µM each time.
With `Cn1cc(Nc2ncc(-c3ccc(CC(=O)Nc4ccc(C(F)(F)F)nc4)c(F)c3)cn2)cn1` [Compound P-0110, 2-[2-fluoro-4-[2-[(1-methylpyrazol-4-yl)amino]pyrimidin-5-yl]phenyl]-N-[6-(trifluoromethyl)-3-pyridyl]acetamide], the IC50 (in experiment [1]; at c-KIT) was 0.0001 to 10 µM throughout.
Regarding `Cn1cnc(Nc2ncc(-c3ccc(CC(=O)Nc4cnc(F)c(C(C)(F)F)c4)cc3)cn2)c1` [Compound P-0168, N-[5-(1,1-difluoroethyl)-6-fluoro-3-pyridyl]-2-[4-[2-[(1-methylimidazol-4-yl)amino]pyrimidin-5-yl]phenyl]acetamide], the IC50 (in experiment [1]; on c-KIT) was 0.0001 to 10 µM throughout.
Regarding `COc1cncc(NC(=O)Cc2ccc(-c3cnc(Nc4cnn(C)c4)nc3)cc2)c1` [Compound P-0133, N-(5-methoxy-3-pyridyl)-2-[4-[2-[(1-methylpyrazol-4-yl)amino]pyrimidin-5-yl]phenyl]acetamide], the IC50 (in experiment [1]; at c-KIT) was 0.0001 to 10 µM throughout.
Turning to `Cn1cc(Nc2ncc(-c3ccc(CC(=O)Nc4ccc(C(C)(C)C#N)nc4)cc3)cn2)cn1` [Compound P-0146, N-[6-(1-cyano-1-methyl-ethyl)-3-pyridyl]-2-[4-[2-[(1-methylpyrazol-4-yl)amino]pyrimidin-5-yl]phenyl]acetamide], the IC50 (in experiment [1]; on c-KIT) was 0.0001 to 10 µM throughout.
Consider `Cn1cnc(Nc2ncc(-c3ccc(CC(=O)Nc4cncc(C(F)(F)F)c4)cc3)cn2)c1` [Compound P-0167], for which the IC50 (in experiment [1]; at c-KIT) was 0.0001 to 10 µM each time.
Turning to `Cn1cc(Nc2ncc(-c3ccc(CC(=O)Nc4ccc(C(F)(F)F)cn4)c(F)c3)cn2)cn1` [Compound P-0106, 2-[2-fluoro-4-[2-[(1-methylpyrazol-4-yl)amino]pyrimidin-5-yl]phenyl]-N-[5-(trifluoromethyl)-2-pyridyl]acetamide], the IC50 (in experiment [1]; on c-KIT) was 0.0001 to 10 µM each time.
`Cn1cc(Nc2ncc(-c3ccc(CC(=O)Nc4cnc(Cl)c(C(F)(F)F)c4)cc3)cn2)cn1` [Compound P-0145, N-[6-chloro-5-(trifluoromethyl)-3-pyridyl]-2-[4-[2-[(1-methylpyrazol-4-yl)amino]pyrimidin-5-yl]phenyl]acetamide]: the IC50 (in experiment [1]; at c-KIT) was 0.0001 to 10 µM in each case.
Turning to `Cn1cc(Nc2ncc(-c3ccc(CC(=O)Nc4ccnc(S(C)(=O)=O)c4)cc3)cn2)cn1` [Compound P-0154, 2-[4-[2-[(1-methylpyrazol-4-yl)amino]pyrimidin-5-yl]phenyl]-N-(2-methylsulfonyl-4-pyridyl)acetamide], the IC50 (in experiment [1]; on c-KIT) was 0.0001 to 10 µM each time.
Consider `COCCn1cc(Nc2ncc(-c3ccc(CC(=O)Nc4cnc(C)c(C(F)(F)F)c4)cc3)cn2)cn1` [Compound P-0179, 2-[4-[2-[[1-(2-methoxyethyl)pyrazol-4-yl]amino]pyrimidin-5-yl]phenyl]-N-[6-methyl-5-(trifluoromethyl)-3-pyridyl]acetamide], for which the IC50 (in experiment [1]; at c-KIT) was 0.0001 to 10 µM in each case.
As for `COc1ccc(-c2cc3cc(-c4ccc(CC(=O)Nc5cncc(C(F)(F)F)c5)cc4F)cnc3[nH]2)cn1` [Compound P-0196, 2-[3-fluoro-4-[2-(6-methoxy-3-pyridyl)-1H-pyrrolo[2,3-b]pyridin-5-yl]phenyl]-N-[5-(trifluoromethyl)-3-pyridyl]acetamide], the IC50 (in experiment [1]; on c-KIT) was 0.0001 to 10 µM each time.
On to `Cn1cc(Nc2ncc(-c3ccc(CC(=O)NCc4ncccc4C(F)(F)F)cc3)cn2)cn1` [Compound P-0159, 2-[4-[2-[(1-methylpyrazol-4-yl)amino]pyrimidin-5-yl]phenyl]-N-[[3-(trifluoromethyl)-2-pyridyl]methyl]acetamide], for which the IC50 (in experiment [1]; at c-KIT) was 0.0001 to 10 µM throughout.
In the case of `O=C(Cc1ccc(-c2cnc3[nH]c(-c4ccnc(N5CCOCC5)c4)cc3c2)cn1)Nc1ccnc(C(F)(F)F)c1` [Compound P-0181, 2-[5-[2-(2-morpholino-4-pyridyl)-1H-pyrrolo[2,3-b]pyridin-5-yl]-2-pyridyl]-N-[2-(trifluoromethyl)-4-pyridyl]acetamide], the concentration for half-maximal inhibition (IC50) (in experiment [1]; on c-KIT) was 0.0001 to 10 µM each time.
For the molecule `N#Cc1cc(-c2cc3cc(-c4ccc(CC(=O)Nc5ccnc(C(F)(F)F)c5)nc4)cnc3[nH]2)ccn1` [Compound P-0182, 2-[5-[2-(2-cyano-4-pyridyl)-1H-pyrrolo[2,3-b]pyridin-5-yl]-2-pyridyl]-N-[2-(trifluoromethyl)-4-pyridyl]acetamide], the IC50 (in experiment [1]; on c-KIT) was 0.0001 to 10 µM in each case.
On to `Cn1cnc(Nc2ncc(-c3ccc(CC(=O)Nc4cc(C(C)(F)F)ccn4)c(F)c3)cn2)c1` [Compound P-0102, N-[4-(1,1-difluoroethyl)-2-pyridyl]-2-[2-fluoro-4-[2-[(1-methylimidazol-4-yl)amino]pyrimidin-5-yl]phenyl]acetamide], for which the IC50 (in experiment [1]; at c-KIT) was 0.0001 to 10 µM throughout.
With `Cc1ncc(NC(=O)Cc2ccc(-c3cnc(Nc4cnn(C)c4)nc3)cc2)cc1C(F)(F)F` [Compound P-0140, 2-[4-[2-[(1-methylpyrazol-4-yl)amino]pyrimidin-5-yl]phenyl]-N-[6-methyl-5-(trifluoromethyl)-3-pyridyl]acetamide], the half-maximal inhibitory concentration (IC50) (in experiment [1]; on c-KIT) was 0.0001 to 10 µM throughout.

The record behind these values is patent US10160747B2, “Compounds and methods for kinase modulation, and indications therefor” (Plexxikon Inc., priority 2016, dated 2018).
